In patent US5196510A, “Molecular recognition units” (Cytogen Corporation, priority 1990, dated 1993):
Read-outs that look alike come from different tables or passages of the source. Residues, ends and D or L forms follow the SMILES beside them. No end group written: not given here.

Experiments:
[1] = system: thrombus induced in the jugular vein; assay: Rabbit thrombus model biodistribution and gamma camera imaging; assay type: in vivo; conditions: for localization to / uptake in the clot in gamma camera images (in words): thrombus in left jugular vein, Tc-99m labeled peptide (FIGS. 3-5)
Procedure: Two kg or larger white New Zealand rabbits were anesthetised and a thrombus induced in the jugular vein as follows: the jugular vein was surgically exposed, side branches tied off and a segment of about 1 inch in length was clamped off. A silk thread was introduced through the segment with both ends external. Ten units of bovine thrombin in Tris-buffered saline (TBS) pH 7.5 were added by syringe. After 10 minutes, the clamp was removed and the wound closed. After 1 hour, approximately 50 μg of a MRU conjugate which is a fusion peptide labeled with Tc-99m as described in Section 8.1, supra, was injected via the contralateral ear vein. I-125 labeled fibrinogen was subsequently injected as a control in order to assess normal blood clearance and clot localization. […] The animals were then sacrificed and the amount of Tc-99m and I-125 in various organs was assessed. A Tc-99m labeled nonspecific peptide analogue containing the RYYD sequence served as a control.

[2] = molecular target: T1, activated platelet fibrinogen receptor (Homo sapiens, UniProt P05106+P08514); assay: Inhibition of binding of 125-I PAC-1 antibody to activated platelets; conditions: inhibition of 125-I PAC-1 binding to platelets activated with PMA or ADP, 37 degrees C, 1 hr; read-out: IC-50 (μM) Binding
T1 construct: Platelets were isolated by placing 7 ml of platelet-rich-plasma onto a 50 ml column of Sepharose 2-B; endogenous in cells
Procedure: The ability of the fusion peptides and of peptides comprising the binding domain of the peptides, specific for the activated platelet fibrinogen receptor, to inhibit the binding of PAC-1 antibody was assessed as follows:
Platelets were isolated by placing 7 ml of platelet-rich-plasma onto a 50 ml column of Sepharose 2-B equilibrated in Walshes 1% BSA buffer (1.0 g NaCl, 0.2 g KCl, 0.2 g MgCl2, 0.45 g NaH 0.9 g HEPES, 1.0 g BSA and 1.0 g dextrose in sufficient water to make exactly 1 liter), pH 7.45. The cloudiest tubes were pooled to obtain 14 ml of platelets (approximately 300,000/μl). The peptide in Walshes 1% BSA buffer and 20,000 CpM of 125-I-pAC 1 (5 μCi/μg) was added to one ml of this in a microfuge tube. Platelets were next activated with 0.1 μM phorbol myristate acetate or 10 μM ADP at 37 degrees C. After 1 hr, platelets were pelleted at top speed in a horizontal microfuge, washed gently, and the tube bottom removed with dog nail clippers and it, supernatant and wash were counted in a […]. […] Varied levels of peptide were examined and IC-50 was determined from a graph of % inhibition versus peptide concentration.

[3] = assay type: in vitro ADME, human; conditions: 37° C
Procedure: A representative peptide designated "Pac-2" of the sequence: […] was labeled with 125-Iodine via standard techniques (Iodobead) (see Markwell, 1982, Anal. Biochem. 125: 427-32). Stability of the labeled peptide, having either an unblocked or blocked amino terminal end, to proteolytic enzymes in plasma was assayed as follows: Labeled peptides were incubated in fresh citrated human platelet-poor plasma in sealed tubes at 37° C. Aliguots were removed at various times and assayed using reverse phase HPLC. Degradation was calculated by loss of the original radioactive peak on a reverse phase HPLC C-6 column using 0-60% acetonitrile in 20 mM Na phosphate, pH, 6.0. Inhibitors of proteolytic enzymes in plasma were used to identify responsible enzyme classes and included: EDTA (metalloenzymes), benzamidine (serine endoproteases), bestatin (aminopeptidases) and leupeptin ([…]).

platelet aggregation = platelet aggregation (Homo sapiens, UniProt P05106+P08514); assay: Inhibition of platelet aggregation (Payton Aggregometer, ADP); assay type: cell-based
Procedure: The ability of the fusion peptides and of peptides comprising the binding domain of the fusion peptides to inhibit platelet aggregation was assessed as follows:
[…], human plasma was prepared by centrifugation of citrated human plasma at 900 rpm, Sorvall Rc-3, for 20 minutes at room temperature. 0.5 mL of the platelet solution was placed in the cuvette of a Payton Aggregometer, followed by 50 μL of a solution containing various concentrations, up to 200 μM, of the peptide being assayed. After 1 minute, 5 μL of 10 mM ADP in water was added. The aggregation rate was assessed by a change in the slope of the absorbance curve.

T1 sequence (P08514 32-887 limits assumed): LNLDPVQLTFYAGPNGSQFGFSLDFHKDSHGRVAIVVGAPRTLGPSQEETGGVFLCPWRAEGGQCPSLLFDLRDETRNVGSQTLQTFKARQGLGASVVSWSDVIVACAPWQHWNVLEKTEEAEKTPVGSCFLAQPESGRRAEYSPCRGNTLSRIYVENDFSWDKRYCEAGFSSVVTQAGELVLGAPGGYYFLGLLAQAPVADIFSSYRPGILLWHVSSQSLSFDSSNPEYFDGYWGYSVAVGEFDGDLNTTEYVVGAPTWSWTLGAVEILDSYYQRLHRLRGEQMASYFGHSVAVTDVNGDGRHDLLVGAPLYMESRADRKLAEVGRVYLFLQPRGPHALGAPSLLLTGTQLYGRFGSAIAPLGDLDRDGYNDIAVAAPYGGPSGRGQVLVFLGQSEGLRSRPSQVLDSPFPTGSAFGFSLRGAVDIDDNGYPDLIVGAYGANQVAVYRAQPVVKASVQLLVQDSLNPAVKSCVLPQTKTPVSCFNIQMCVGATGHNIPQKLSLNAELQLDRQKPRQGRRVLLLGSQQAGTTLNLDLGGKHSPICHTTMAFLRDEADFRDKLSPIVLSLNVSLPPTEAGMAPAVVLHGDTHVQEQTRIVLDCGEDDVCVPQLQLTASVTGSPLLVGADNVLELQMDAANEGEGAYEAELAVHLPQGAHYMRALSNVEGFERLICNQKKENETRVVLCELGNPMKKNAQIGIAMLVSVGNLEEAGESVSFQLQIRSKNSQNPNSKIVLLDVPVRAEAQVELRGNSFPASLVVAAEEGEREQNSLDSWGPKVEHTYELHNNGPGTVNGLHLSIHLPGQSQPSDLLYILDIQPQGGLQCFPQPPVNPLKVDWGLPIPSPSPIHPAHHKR
T1 sequence (P08514 891-1039 partner limits assumed): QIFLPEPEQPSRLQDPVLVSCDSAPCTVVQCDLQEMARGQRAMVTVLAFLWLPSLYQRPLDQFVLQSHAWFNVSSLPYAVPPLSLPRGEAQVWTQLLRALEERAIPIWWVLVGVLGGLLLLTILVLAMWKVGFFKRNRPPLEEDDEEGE
T1 sequence (P05106 27-788): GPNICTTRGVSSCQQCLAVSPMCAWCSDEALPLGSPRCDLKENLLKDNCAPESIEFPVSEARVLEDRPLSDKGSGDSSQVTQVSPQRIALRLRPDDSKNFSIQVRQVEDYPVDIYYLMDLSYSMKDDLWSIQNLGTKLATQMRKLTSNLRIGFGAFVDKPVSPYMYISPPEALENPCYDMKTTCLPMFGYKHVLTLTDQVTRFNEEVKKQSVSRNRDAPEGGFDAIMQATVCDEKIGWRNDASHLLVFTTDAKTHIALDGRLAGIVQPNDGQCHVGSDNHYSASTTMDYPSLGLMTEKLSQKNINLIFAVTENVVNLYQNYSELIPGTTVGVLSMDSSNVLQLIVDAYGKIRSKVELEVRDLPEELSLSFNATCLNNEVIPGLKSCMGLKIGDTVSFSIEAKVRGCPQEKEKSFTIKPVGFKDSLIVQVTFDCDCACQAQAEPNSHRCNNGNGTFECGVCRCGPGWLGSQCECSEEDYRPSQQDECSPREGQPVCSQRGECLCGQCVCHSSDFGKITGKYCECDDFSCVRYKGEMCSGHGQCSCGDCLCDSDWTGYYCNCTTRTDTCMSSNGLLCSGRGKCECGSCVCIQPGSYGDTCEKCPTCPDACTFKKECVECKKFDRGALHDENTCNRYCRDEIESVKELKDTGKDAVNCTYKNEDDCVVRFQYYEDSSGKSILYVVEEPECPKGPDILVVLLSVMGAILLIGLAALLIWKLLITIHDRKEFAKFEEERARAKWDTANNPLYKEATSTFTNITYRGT
Sequence of platelet aggregation (P08514 32-1039): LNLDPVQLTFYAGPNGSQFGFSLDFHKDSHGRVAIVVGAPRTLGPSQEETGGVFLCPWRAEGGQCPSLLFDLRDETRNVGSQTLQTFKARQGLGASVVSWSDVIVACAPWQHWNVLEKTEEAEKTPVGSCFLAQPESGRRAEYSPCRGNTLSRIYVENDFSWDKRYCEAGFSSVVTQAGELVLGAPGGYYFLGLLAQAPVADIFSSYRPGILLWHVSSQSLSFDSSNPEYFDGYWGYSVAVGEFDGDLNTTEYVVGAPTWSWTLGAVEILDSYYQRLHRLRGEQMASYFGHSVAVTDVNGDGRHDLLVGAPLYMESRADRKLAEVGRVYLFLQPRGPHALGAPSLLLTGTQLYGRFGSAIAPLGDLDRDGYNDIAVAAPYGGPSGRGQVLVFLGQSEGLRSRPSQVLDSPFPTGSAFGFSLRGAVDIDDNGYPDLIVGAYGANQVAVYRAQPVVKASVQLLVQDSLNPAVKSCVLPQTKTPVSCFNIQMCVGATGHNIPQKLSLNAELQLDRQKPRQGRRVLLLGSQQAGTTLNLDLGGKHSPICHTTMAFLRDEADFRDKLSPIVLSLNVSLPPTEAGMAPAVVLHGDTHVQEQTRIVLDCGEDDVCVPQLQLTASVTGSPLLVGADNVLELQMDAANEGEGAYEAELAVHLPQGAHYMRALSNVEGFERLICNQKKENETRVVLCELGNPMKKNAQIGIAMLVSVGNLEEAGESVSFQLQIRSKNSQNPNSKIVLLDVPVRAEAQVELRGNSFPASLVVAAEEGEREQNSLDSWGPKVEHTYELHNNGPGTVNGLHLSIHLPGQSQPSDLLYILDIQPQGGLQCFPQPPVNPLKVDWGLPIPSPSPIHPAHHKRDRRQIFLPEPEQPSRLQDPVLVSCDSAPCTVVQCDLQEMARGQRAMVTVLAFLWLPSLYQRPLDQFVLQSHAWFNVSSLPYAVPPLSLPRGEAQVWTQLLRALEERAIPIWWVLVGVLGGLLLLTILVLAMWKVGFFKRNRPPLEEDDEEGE
Sequence of platelet aggregation (P05106 27-788): as the sequence (P05106 27-788) above

With `CC(=O)N[C@@H](CO)C(=O)N[C@@H](Cc1ccc(O)cc1)C(=O)NCC(=O)N[C@@H](CCCNC(=N)N)C(=O)NCC(=O)N[C@@H](CC(=O)O)C(=O)N[C@H](C(=O)N[C@@H](CCCNC(=N)N)C(=O)NCC(=O)N[C@@H](CC(=O)O)C(=O)N[C@@H](Cc1ccccc1)C(=O)N[C@@H](CCCCN)C(=O)N[C@@H](CS)C(=O)N[C@H](C(=O)N[C@@H](CS)C(=O)N[C@@H](CS)C(=O)N[C@@H](C)C(N)=O)[C@@H](C)O)C(C)C` [PAC-8] (Ac-SYGRGDVRGDFKCTCCA-NH2) the “time after injection at which the clot is imaged” value ([1]; gamma camera) was at most 18 min, the “persistence of the clot image” value ([1]; gamma camera (FIG. 3D)) was at least 4 h and the “localization to / uptake in the clot in gamma camera images (in words)” value (“localization to / uptake in the clot” below) [1] was “localizes to and images the clot”.

For `CC(=O)N[C@@H](CCCCN)C(=O)N[C@@H](CS)C(=O)N[C@H](C(=O)N[C@@H](CS)C(=O)N[C@@H](CS)C(=O)N[C@@H](C)C(=O)N1CCC[C@H]1C(=O)N[C@@H](CO)C(=O)N[C@@H](Cc1ccc(O)cc1)C(=O)N[C@@H](Cc1ccc(O)cc1)C(=O)N[C@@H](CCCNC(=N)N)C(=O)NCC(=O)N[C@@H](CC(=O)O)C(=O)NCC(=O)N[C@@H](C)C(=O)N1CCC[C@H]1C(=O)N[C@@H](CO)C(=O)N[C@@H](Cc1ccc(O)cc1)C(=O)N[C@@H](Cc1ccc(O)cc1)C(=O)N[C@@H](CCCNC(=N)N)C(=O)NCC(=O)N[C@@H](CC(=O)O)C(=O)NCC(=O)N[C@@H](C)C(=O)N1CCC[C@H]1C(=O)N[C@@H](CO)C(=O)N[C@@H](Cc1ccc(O)cc1)C(=O)N[C@@H](Cc1ccc(O)cc1)C(=O)N[C@@H](CCCNC(=N)N)C(=O)NCC(=O)N[C@@H](CC(=O)O)C(=O)N[C@@H](C)C(N)=O)[C@@H](C)O` [PAC-15] (Ac-KCTCCAPSYYRGDGAPSYYRGDGAPSYYRGDA-NH2), the “localization to / uptake in the clot” value [1] was “clearly localize and permit imaging of the clot”.

With `CC(=O)N1CCC[C@H]1C(=O)N[C@@H](CO)C(=O)N[C@@H](Cc1ccc(O)cc1)C(=O)N[C@@H](Cc1ccc(O)cc1)C(=O)N[C@@H](CCCNC(=N)N)C(=O)NCC(=O)N[C@@H](CC(=O)O)C(=O)NCC(=O)N[C@@H](C)C(=O)N1CCC[C@H]1C(=O)N[C@@H](CO)C(=O)N[C@@H](Cc1ccc(O)cc1)C(=O)N[C@@H](Cc1ccc(O)cc1)C(=O)N[C@@H](CCCNC(=N)N)C(=O)NCC(=O)N[C@@H](CC(=O)O)C(=O)NCC(=O)N[C@@H](C)C(=O)N1CCC[C@H]1C(=O)N[C@@H](CO)C(=O)N[C@@H](Cc1ccc(O)cc1)C(=O)N[C@@H](Cc1ccc(O)cc1)C(=O)N[C@@H](CCCNC(=N)N)C(=O)NCC(=O)N[C@@H](CC(=O)O)C(=O)N[C@@H](C)C(=O)N[C@@H](CCCCN)C(=O)N[C@@H](CS)C(=O)N[C@H](C(=O)N[C@@H](CS)C(=O)N[C@@H](CS)C(=O)N[C@@H](C)C(N)=O)[C@@H](C)O` [PAC-16] (Ac-PSYYRGDGAPSYYRGDGAPSYYRGDAKCTCCA-NH2) the “localization to / uptake in the clot” value [1] was “clearly localize and permit imaging of the clot”.

ARRSPSYYRGDAGPYYAMDY gave an IC50 [2] of 10 µM.

ARRSPSYYRYDAGPYYAMDY showed an IC50 [2] of 90 µM.

With acARRSPSYYRGDAGPYYAMDYKCTCCA-a [PAC-2] the “Half-Life” value ([3]; inhibitor 1 mM Bestatin, human platelet-poor plasma) was 8.5 min and the “Half-Life” value ([3]; no inhibitor, 125-I labeled peptide in citrated human platelet-poor plasma) was 2.1 min.

With acARRSPSYYRYYDAGPYYAMDYKCTCCA-a [PAC-3] the “inhibition of platelet aggregation and/or PAC-1 binding (in words)” value (platelet aggregation) was “lack of platelet inhibition” and the “localization to / uptake in the clot” value [1] was “no uptake in the region of the clot”.
